We go through 9 compounds from PubChem BioAssay (NCI).

Common to all, as to assay: growth of human tumour cells (NCI), 48 h
Assay [1] deals with A549 NSCLC.
Assay [2] relates to KM12 colon.
Assay [3] concerns LOX IMVI melanoma.
The test system of assay [4] is MDA-MB-435.
The test system of assay [5] is PC-3 prostate.
The subject of assay [6] is SK-MEL-5 melanoma.
In assay [7] the test system is SN12C renal.
The test system of assay [8] is TK-10 renal.
Assay [9] has as its system UACC-62 melanoma.
In assay [10] the test system is OVCAR-3 ovarian.

Structures are written as SMILES. Values joined by “and” are separate entries in the source; they are usually repeats but may differ in a detail not shown here. Identical values can stand only once.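 The compound was tested at five concentrations on cells cultured in 96-well plates, with a 48-hour exposure period. GI50 is the concentration that inhibits growth by half. The concentration for full growth arrest is given as TGI.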

For `C=C(C)C1CC2(C)C(C)CC(OC(=O)/C(C)=C\C)CC2C(OC(=O)/C(C)=C\C)C1O` (stereo not given), the TGI in assay [1] is above 100 µM; in assay [2], above 100 µM; in [3], above 100 µM; in [4], above 100 µM; in assay [5], above 100 µM; in [6], 43.7 µM. Further, the TGI in [7], in assay [8] and in assay [9] was above 100 µM in each case.
Consider `COc1ccc2c(c1)C(=O)C(=O)c1cc(O)c(OC)c(OC)c1-2`, for which the GI50 is 1.96 µM in [1]; 1.48 µM in assay [3]; 0.291 µM in assay [4]; 1.65 µM in [10]; 1.93 µM in [5]; 1.68 µM in [6]. Moreover, the GI50 in assay [7] was 1.71 µM; in [8], 1.69 µM; in assay [9], 1.76 µM. The TGI in assay [1] was 12.1 µM and 3.89 µM; in [2] it was 3.28 µM; in [3] it was 1.83 µM and 3.16 µM; in assay [4], 0.272 µM and 0.807 µM; in [10] it was 3.63 µM and 3.11 µM; in [5] it was 2.48 µM and 3.34 µM. In addition, the TGI was 1.53 µM and 3.07 µM in assay [6]; 1.6 µM and 3.08 µM in assay [7]; 1.77 µM and 3.05 µM in assay [8]; 1.54 µM and 3.16 µM in [9].
Turning to `CC1CCN(CCCCCOc2ccc3oc4cc(Cl)ccc4c(=O)c3c2)CC1`, the GI50 in assay [1] is 7.49 µM; in assay [2] it was 6.26 µM; in assay [3], 4.18 µM; in assay [4], 1.55 µM; in [10], 7 µM; in [5] it was 6.89 µM. Moreover, the GI50 in assay [6] was 5.36 µM; in assay [7], 6.49 µM; in [8], 7.46 µM; in assay [9] it was 2.24 µM. Besides, the TGI in assay [1] was determined as 14.4 µM; in [2], 14.4 µM; in assay [3] it was 10.9 µM; in assay [4], 5.23 µM; in assay [10], 14.2 µM; in [5], 16.4 µM. Further, the TGI stood at 11.3 µM in assay [6], 13.1 µM in [7], 14.8 µM in [8] and 7.73 µM in assay [9].
As to `CN1CCN(c2ccc3nc(-c4c(N)c5c(F)cccc5[nH]c4=O)[nH]c3c2)CC1`, the GI50 in assay [1] was 0.594 µM and 0.451 µM and 0.674 µM; in assay [2], 0.0357 µM and 0.0406 µM and 0.0407 µM; in assay [3], 0.478 µM and 0.41 µM and 0.769 µM; in assay [4], 0.974 µM and 0.535 µM and 1.08 µM; in [10], 1.47 µM and 1.27 µM and 3.2 µM; in assay [5] it was 1.16 µM and 1.02 µM and 1.73 µM. The GI50 in [6] is 1.33 µM and 0.604 µM and 1.72 µM; in assay [7], 0.413 µM and 0.393 µM and 0.62 µM; in assay [8], 1.14 µM and 1.01 µM and 3.56 µM; in [9] it was 1.19 µM and 1.28 µM and 2.13 µM. For the same compound, the TGI was 2.15 µM and > 3.74 µM and 3.86 µM in assay [1]; 2.07 µM and > 3.51 µM and 7.5 µM in assay [2]; 1.86 µM and 1.48 µM and 2.14 µM in [3]; 2.34 µM and 1.85 µM and 2.61 µM in assay [4]; 2.96 µM and > 8.27 µM and 8.9 µM in [10]; 7.1 µM and > 7.42 µM and 8.59 µM in assay [5]. Besides, the TGI was 2.64 µM and 1.29 µM and 3.16 µM in assay [6]; 5.3 µM and > 5.12 µM and 5.82 µM in [7]; 4.95 µM and > 4.67 µM and 16.8 µM in [8]; 6.05 µM and > 2.9 µM and 10 µM in [9].
For the compound `C=CC[P+](c1ccccc1)(c1ccccc1)c1ccccc1`, the GI50 in [1] is 4.54 µM; in [2], 1.46 µM; in assay [3] it was 6.53 µM; in assay [4], 2.07 µM; in assay [10] it was 1.99 µM; in assay [5], 1.78 µM. Besides, the GI50 in [6] is 1.6 µM; in assay [7] it was 6.36 µM; in assay [9], 2.69 µM. The TGI in assay [1] was above 100 µM; in assay [2], above 100 µM; in assay [3], above 100 µM; in [4], 19.3 µM; in [10], above 100 µM; in assay [5], 33.5 µM. Besides, the values for the TGI in assay [6], in [7] and in assay [9] were 5.27 µM, above 100 µM and above 100 µM, respectively.
`O=S(=O)(O)c1ccc(-c2nnc(-c3ccccn3)nc2-c2ccc(S(=O)(=O)O)o2)o1`: the TGI in [1], in assay [2], in assay [3], in assay [4], in assay [10] and in assay [5] was above 100 µM in each case. The TGI in assay [6], in [7] and in assay [9] was above 100 µM each time.
For `O=C(CSC(c1ccccc1)c1ccccc1)N/N=C/c1cccc(Cl)c1`, the GI50 in assay [1] is 15.1 µM; in assay [2], 17.3 µM; in assay [3] it was 17.9 µM; in assay [4] it was 22.5 µM; in assay [10], 21.4 µM; in assay [5], 19.4 µM. Moreover, the GI50 in assay [6] is 11.4 µM; in assay [8], 19.2 µM; in assay [9], 16 µM. Moreover, the TGI in assay [1] was found to be 40.1 µM; in assay [2], 33.2 µM; in assay [3], 33.3 µM; in assay [4] it was 43.7 µM; in assay [10], 38.9 µM; in assay [5], 35.7 µM. Also, the TGI is 23.7 µM in assay [6], 34.9 µM in assay [8] and 30.3 µM in [9].
In the case of `CN=C(NC#N)NCCSCc1nc[nH]c1C`, the TGI in assay [1], in [2], in [3], in assay [4], in [10] and in [5] was above 100 µM in each case. For the same compound, the TGI in assay [6], in [7] and in assay [9] was above 100 µM in each case.
For the compound `CCOC(=O)/C=C/c1cc2cc(-c3csc4ccccc34)ccc2[nH]1`, the GI50 in [1] is 4.39 µM; in assay [2], 2.67 µM; in assay [3] it was 5 µM; in assay [4], 1.91 µM; in [10], 5.34 µM; in assay [5], 3.42 µM. In addition, the GI50 in assay [6] was 4.52 µM; in assay [8] it was 14.4 µM; in [9], 6.76 µM. Moreover, the TGI came to 18.1 µM in assay [1]; 7.93 µM in [2]; 18.9 µM in [3]; 4.73 µM in assay [4]; 17.1 µM in [10]; 13.8 µM in assay [5]. Besides, the results for the TGI in [6], in assay [8] and in [9] were 16.6 µM, 29 µM and 19.6 µM, respectively.
